ChEMBL document CHEMBL1201862, “PubChem BioAssay data set” (2004)
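Following 48 hours of exposure in 96-well plates, responses at five concentrations were used to interpolate endpoints linearly. GI50 marks 50% less growth.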 Activity calls are given as the source filed them. No stated cut-off is given here; in the data, active = GI50 up to about 1.1 µM and inactive = higher.

Assays:
Assay in all cases: NCI-60 cell line screen, 48 h
[1] = system: 786-0
[2] = system: A549
[3] = system: ACHN
[4] = system: CAKI-1
[5] = system: CCRF-CEM
[6] = system: COLO 205
[7] = system: DU-145
[8] = system: EKVX
[9] = system: HCC 2998
[10] = system: HCT-116
[11] = system: HCT-15
[12] = system: HL-60
[13] = system: HOP-62
[14] = system: HOP-92
[15] = system: HT-29
[16] = system: IGROV-1
[17] = system: K562
[18] = system: KM12
[19] = system: LOX IMVI
[20] = system: M14
[21] = system: MCF7
[22] = system: MDA-MB-231
[23] = system: MDA-MB-435
[24] = system: MOLT-4
[25] = system: Malme-3M
[26] = system: NCI-H23
[27] = system: NCI-H460
[28] = system: NCI-H522
[29] = system: NCI/ADR-RES
[30] = system: OVCAR-3
[31] = system: OVCAR-4
[32] = system: OVCAR-5
[33] = system: OVCAR-8
[34] = system: PC-3
[35] = system: RPMI-8226
[36] = system: SF-268
[37] = system: SF-295
[38] = system: SK-MEL-28
[39] = system: SK-MEL-2
[40] = system: SK-MEL-5
[41] = system: SK-OV-3
[42] = system: SN12C
[43] = system: SNB-19
[44] = system: SR
[45] = system: SW-620
[46] = system: T47D
[47] = system: TK-10
[48] = system: U-251
[49] = system: UACC-257
[50] = system: UACC-62
[51] = system: UO-31
[52] = system: A498
[53] = system: NCI-H226
[54] = system: RXF 393
[55] = system: SF-539

For `CC(C)(CO)NC(=O)c1cccs1`, the GI50 [1] was > 100 µM (inactive), the GI50 [2] was > 100 µM (inactive) and the GI50 [3] was > 100 µM (inactive). For the same compound, the GI50 [4] was > 100 µM (inactive), the GI50 [5] was > 100 µM (inactive) and the GI50 [6] was > 100 µM (inactive). The GI50 [7] was > 100 µM (inactive), the GI50 [8] was > 100 µM (inactive) and the GI50 [9] was > 100 µM (inactive). For the same compound, the GI50 [10] was > 100 µM (inactive), the GI50 [11] was greater than 100 µM and the GI50 [12] was > 100 µM (inactive). The GI50 [13] was > 100 µM (inactive), the GI50 [14] was > 100 µM (inactive) and the GI50 [15] was > 100 µM (inactive). For the same compound, the GI50 [16] was > 100 µM (inactive), the GI50 [17] was > 100 µM (inactive) and the GI50 [18] was > 100 µM (inactive). The GI50 [19] was > 100 µM (inactive), the GI50 [20] was > 100 µM (inactive) and the GI50 [21] was > 100 µM (inactive). For the same compound, the GI50 [22] was > 100 µM (inactive), the GI50 [23] was > 100 µM (inactive) and the GI50 [24] was > 100 µM (inactive). For the same compound, the GI50 [25] was > 100 µM (inactive), the GI50 [26] was > 100 µM (inactive) and the GI50 [27] was > 100 µM (inactive). For the same compound, the GI50 [28] was > 100 µM (inactive), the GI50 [29] was > 100 µM (inactive) and the GI50 [30] was > 100 µM (inactive). For the same compound, the GI50 [31] was > 100 µM (inactive), the GI50 [32] was > 100 µM (inactive) and the GI50 [33] was > 100 µM (inactive). The GI50 [34] was > 100 µM (inactive), the GI50 [35] was > 100 µM (inactive) and the GI50 [36] was > 100 µM (inactive). The GI50 [37] was > 100 µM (inactive), the GI50 [38] was > 100 µM (inactive) and the GI50 [39] was > 100 µM (inactive). For the same compound, the GI50 [40] was > 100 µM (inactive), the GI50 [41] was > 100 µM (inactive) and the GI50 [42] was > 100 µM (inactive). For the same compound, the GI50 [43] was > 100 µM (inactive), the GI50 [44] was > 100 µM (inactive) and the GI50 [45] was > 100 µM (inactive). The GI50 [46] was > 100 µM (inactive), the GI50 [47] was > 100 µM (inactive) and the GI50 [48] was > 100 µM (inactive). For the same compound, the GI50 [49] was > 100 µM (inactive), the GI50 [50] was > 100 µM (inactive) and the GI50 [51] was > 100 µM (inactive).

With `O=C(/N=C1\SCCN1C(=O)C(C(F)(F)F)C(F)(F)F)C(C(F)(F)F)C(F)(F)F` the GI50 [1] was > 100 µM (inactive), the GI50 [52] was > 100 µM (inactive) and the GI50 [2] was > 100 µM (inactive). For the same compound, the GI50 [3] was > 100 µM (inactive), the GI50 [4] was > 100 µM (inactive) and the GI50 [5] was > 100 µM (inactive). For the same compound, the GI50 [6] was > 100 µM (inactive), the GI50 [8] was > 100 µM (inactive) and the GI50 [9] was > 100 µM (inactive). For the same compound, the GI50 [10] was > 100 µM (inactive), the GI50 [11] was greater than 100 µM and the GI50 [12] was > 100 µM (inactive). For the same compound, the GI50 [13] was > 100 µM (inactive), the GI50 [14] was > 100 µM (inactive) and the GI50 [15] was > 100 µM (inactive). For the same compound, the GI50 [16] was > 100 µM (inactive), the GI50 [17] was > 100 µM (inactive) and the GI50 [19] was > 100 µM (inactive). For the same compound, the GI50 [20] was > 100 µM (inactive), the GI50 [21] was > 100 µM (inactive) and the GI50 [22] was > 100 µM (inactive). For the same compound, the GI50 [23] was > 100 µM (inactive), the GI50 [24] was > 100 µM (inactive) and the GI50 [25] was > 100 µM (inactive). For the same compound, the GI50 [53] was > 100 µM (inactive), the GI50 [26] was > 100 µM (inactive) and the GI50 [27] was > 100 µM (inactive). The GI50 [28] was > 100 µM (inactive), the GI50 [29] was > 100 µM (inactive) and the GI50 [30] was > 100 µM (inactive). The GI50 [31] was > 100 µM (inactive), the GI50 [32] was > 100 µM (inactive) and the GI50 [33] was > 100 µM (inactive). The GI50 [34] was > 100 µM (inactive), the GI50 [35] was > 100 µM (inactive) and the GI50 [54] was > 100 µM (inactive). For the same compound, the GI50 [37] was > 100 µM (inactive), the GI50 [55] was > 100 µM (inactive) and the GI50 [38] was > 100 µM (inactive). For the same compound, the GI50 [39] was > 100 µM (inactive), the GI50 [40] was > 100 µM (inactive) and the GI50 [41] was > 100 µM (inactive). The GI50 [43] was > 100 µM (inactive), the GI50 [44] was > 100 µM (inactive) and the GI50 [45] was > 100 µM (inactive). The GI50 [47] was > 100 µM (inactive), the GI50 [48] was > 100 µM (inactive) and the GI50 [49] was > 100 µM (inactive). For the same compound, the GI50 [51] was > 100 µM (inactive).
